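These data come from cells grown in 96-well plates and exposed to compound for 48 hours at five concentrations. TGI denotes the concentration required for complete inhibition of growth.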
How the values were obtained:
Experiment in all cases: inhibition of tumour cell growth, NCI panel, 48 h
[1] = test system: 786-0 renal
[2] = test system: A498 renal
[3] = test system: A549 NSCLC
[4] = test system: ACHN renal
[5] = test system: BT-549 breast
[6] = test system: CAKI-1 renal
[7] = test system: CCRF-CEM leukemia
[8] = test system: COLO 205 colon
[9] = test system: DMS 114 small cell lung
[10] = test system: DU-145 prostate
[11] = test system: EKVX NSCLC
[12] = test system: HCC-2998 colon
[13] = test system: HCT-116 colon
[14] = test system: HCT-15 colon
[15] = test system: HL-60(TB) leukemia
[16] = test system: HOP-62 NSCLC
[17] = test system: HOP-92 NSCLC
[18] = test system: HS 578T breast
[19] = test system: HT29 colon
[20] = test system: IGROV1 ovarian
[21] = test system: K-562 leukemia
[22] = test system: KM12 colon
[23] = test system: KM20L2 colon
[24] = test system: LOX IMVI melanoma
[25] = test system: LXFL 529 NSCLC
[26] = test system: M14 melanoma
[27] = test system: M19-MEL melanoma
[28] = test system: MALME-3M melanoma
[29] = test system: MCF7 breast
[30] = test system: MDA-MB-231 breast
[31] = test system: MDA-MB-435
[32] = test system: MDA-N
[33] = test system: MOLT-4 leukemia
[34] = test system: NCI-H226 lung
[35] = test system: NCI-H23 lung
[36] = test system: NCI-H460 lung
[37] = test system: NCI-H522 lung
[38] = test system: NCI/ADR-RES ovarian
[39] = test system: OVCAR-3 ovarian
[40] = test system: OVCAR-4 ovarian
[41] = test system: OVCAR-5 ovarian
[42] = test system: OVCAR-8 ovarian
[43] = test system: PC-3 prostate
[44] = test system: RPMI-8226 leukemia
[45] = test system: RXF 393 renal
[46] = test system: SF-268 CNS
[47] = test system: SF-295 CNS
[48] = test system: SF-539 CNS
[49] = test system: SK-MEL-2 melanoma
[50] = test system: SK-MEL-28 melanoma
[51] = test system: SK-MEL-5 melanoma
[52] = test system: SK-OV-3 ovarian
[53] = test system: SN12C renal
[54] = test system: SNB-19 CNS
[55] = test system: SNB-75 CNS
[56] = test system: SNB-78 CNS
[57] = test system: SR leukemia
[58] = test system: SW-620 colon
[59] = test system: T-47D breast
[60] = test system: TK-10 renal
[61] = test system: U251 CNS
[62] = test system: UACC-257 melanoma
[63] = test system: UACC-62 melanoma
[64] = test system: UO-31 renal
[65] = test system: DLD-1 colon
[66] = test system: DMS 273 small cell lung

SMILES: CS(=O)(=O)OCCN(CCOS(C)(=O)=O)c1ccc(C=Nc2ccc3oc(=O)ccc3c2)cc1
- TGI [1]: 3.5 µM
- TGI [2]: 4.67 µM
- TGI [3]: 35.3 µM
- TGI [4]: 4.91 µM
- TGI [5]: 45.7 µM
- TGI [6]: 9.11 µM
- TGI [7]: 31.8 µM
- TGI [8]: 10.3 µM
- TGI [9]: 22.3 µM
- TGI [10]: 35.9 µM
- TGI [11]: 36.5 µM
- TGI [12]: 7.77 µM
- TGI [13]: > 100 µM
- TGI [14]: 37.9 µM
- TGI [15]: 41.3 µM
- TGI [16]: 34.1 µM
- TGI [17]: 47.1 µM
- TGI [18]: 92.1 µM
- TGI [19]: 53.6 µM
- TGI [20]: 53.1 µM
- TGI [21]: > 100 µM
- TGI [22]: 30.3 µM
- TGI [23]: > 100 µM
- TGI [24]: 29.9 µM
- TGI [25]: 36.4 µM
- TGI [26]: 31.6 µM
- TGI [27]: 39 µM
- TGI [28]: 23.8 µM
- TGI [29]: > 93.5 µM
- TGI [30]: 80.8 µM
- TGI [31]: 26.1 µM
- TGI [32]: 35.8 µM
- TGI [33]: 15.4 µM
- TGI [34]: 21.9 µM
- TGI [35]: 17.5 µM
- TGI [36]: 5.38 µM
- TGI [37]: 0.828 µM
- TGI [38]: 62.5 µM
- TGI [39]: 24.1 µM
- TGI [40]: 41 µM
- TGI [41]: 28.9 µM
- TGI [42]: 49.9 µM
- TGI [43]: 80.7 µM
- TGI [44]: 49.1 µM
- TGI [45]: 1.89 µM
- TGI [46]: 74.3 µM
- TGI [47]: 42.2 µM
- TGI [48]: 35.3 µM
- TGI [49]: 37.7 µM
- TGI [50]: 64.4 µM
- TGI [51]: 32.8 µM
- TGI [52]: 9.92 µM
- TGI [53]: > 70.5 µM
- TGI [54]: 80.7 µM
- TGI [55]: 26.1 µM
- TGI [56]: 12.5 µM
- TGI [57]: 40.1 µM
- TGI [58]: > 83.1 µM
- TGI [59]: 72.8 µM
- TGI [60]: 9.22 µM
- TGI [61]: 41.9 µM
- TGI [62]: 26.9 µM
- TGI [63]: 19.8 µM
- TGI [64]: 2.96 µM

SMILES: CC(=O)n1nc(-c2nc3ccccc3nc2Cl)cc1Cl
- TGI [1]: 78.8 µM
- TGI [2]: > 100 µM
- TGI [3]: > 88.5 µM
- TGI [4]: 28.5 µM
- TGI [5]: 28.8 µM
- TGI [6]: 21.6 µM
- TGI [7]: 7.73 µM
- TGI [8]: 33.2 µM
- TGI [10]: 43.1 µM
- TGI [11]: 37.7 µM
- TGI [12]: > 100 µM
- TGI [13]: 25.4 µM
- TGI [14]: 57.3 µM
- TGI [15]: 35 µM
- TGI [16]: 73.8 µM
- TGI [17]: > 100 µM
- TGI [18]: > 91.7 µM
- TGI [19]: 51.9 µM
- TGI [20]: > 100 µM
- TGI [21]: > 53.2 µM
- TGI [22]: 48.5 µM
- TGI [24]: 33.3 µM
- TGI [26]: 19.4 µM
- TGI [28]: > 78.7 µM
- TGI [29]: > 82.6 µM
- TGI [30]: > 100 µM
- TGI [31]: 19 µM
- TGI [32]: 24.2 µM
- TGI [33]: 14.3 µM
- TGI [34]: 30.8 µM
- TGI [35]: 49.6 µM
- TGI [36]: > 88.2 µM
- TGI [37]: 31.2 µM
- TGI [38]: 55.8 µM
- TGI [39]: 68.2 µM
- TGI [40]: 53.3 µM
- TGI [41]: > 92.3 µM
- TGI [42]: 67.1 µM
- TGI [43]: > 100 µM
- TGI [44]: > 100 µM
- TGI [45]: > 100 µM
- TGI [46]: > 100 µM
- TGI [47]: > 93.2 µM
- TGI [48]: 10.1 µM
- TGI [49]: > 100 µM
- TGI [50]: > 86.3 µM
- TGI [51]: 16.1 µM
- TGI [52]: > 77.7 µM
- TGI [53]: > 65.9 µM
- TGI [54]: > 92 µM
- TGI [55]: 76.6 µM
- TGI [57]: 13.3 µM
- TGI [58]: > 100 µM
- TGI [59]: > 100 µM
- TGI [60]: > 100 µM
- TGI [61]: > 77.6 µM
- TGI [62]: > 100 µM
- TGI [63]: > 100 µM
- TGI [64]: 4.79 µM

SMILES: CCN(CC)CCN=Cc1c(O)c(O)c(C(C)C)c2cc(C)c(-c3c(C)cc4c(C(C)C)c(O)c(O)c(C=NCCN(CC)CC)c4c3O)c(O)c12
- TGI [4]: 8.37 µM
- TGI [7]: 1.45 µM
- TGI [8]: 14.5 µM
- TGI [9]: 3.76 µM
- TGI [12]: 9.62 µM
- TGI [13]: 6.02 µM
- TGI [16]: 8.13 µM
- TGI [17]: 7.96 µM
- TGI [19]: 3.83 µM
- TGI [20]: 12.5 µM
- TGI [21]: 3 µM
- TGI [22]: 3.92 µM
- TGI [25]: 3.11 µM
- TGI [26]: 4.06 µM
- TGI [27]: 14.1 µM
- TGI [28]: 17 µM
- TGI [33]: 4.36 µM
- TGI [35]: 8.04 µM
- TGI [36]: 13.7 µM
- TGI [37]: 3.4 µM
- TGI [39]: 4.61 µM
- TGI [40]: 10.1 µM
- TGI [44]: 6.16 µM
- TGI [45]: 5.31 µM
- TGI [46]: 34.6 µM
- TGI [47]: 4.45 µM
- TGI [48]: 5.65 µM
- TGI [49]: 5.17 µM
- TGI [50]: 12.5 µM
- TGI [52]: 12.4 µM
- TGI [54]: 8.86 µM
- TGI [55]: 22.6 µM
- TGI [56]: 5.6 µM
- TGI [62]: 18.8 µM
- TGI [63]: 6.03 µM
- TGI [64]: 8.8 µM

SMILES: Cc1cccc2c1Oc1cc(Cl)ccc1C2NC(=O)CN(C)C (stereo not given)
- TGI [1]: 41.4 µM
- TGI [3]: > 100 µM
- TGI [4]: > 100 µM
- TGI [7]: > 100 µM
- TGI [8]: > 100 µM
- TGI [65]: > 100 µM
- TGI [9]: > 100 µM
- TGI [66]: > 100 µM
- TGI [11]: > 100 µM
- TGI [12]: > 100 µM
- TGI [13]: > 100 µM
- TGI [14]: > 100 µM
- TGI [15]: 45.3 µM
- TGI [16]: > 100 µM
- TGI [19]: > 100 µM
- TGI [20]: > 100 µM
- TGI [21]: > 100 µM
- TGI [23]: 41.2 µM
- TGI [24]: > 100 µM
- TGI [25]: > 100 µM
- TGI [26]: 51.8 µM
- TGI [27]: 47.6 µM
- TGI [33]: > 100 µM
- TGI [34]: > 100 µM
- TGI [35]: > 100 µM
- TGI [36]: > 100 µM
- TGI [40]: > 100 µM
- TGI [41]: > 100 µM
- TGI [42]: > 100 µM
- TGI [44]: > 100 µM
- TGI [45]: 87.8 µM
- TGI [46]: > 100 µM
- TGI [48]: > 100 µM
- TGI [50]: 72.7 µM
- TGI [51]: 49.3 µM
- TGI [52]: > 100 µM
- TGI [53]: > 100 µM
- TGI [54]: > 100 µM
- TGI [55]: 68.8 µM
- TGI [56]: > 100 µM
- TGI [57]: > 100 µM
- TGI [58]: > 100 µM
- TGI [60]: > 100 µM
- TGI [62]: 89.5 µM
- TGI [63]: 70 µM
- TGI [64]: > 100 µM

Source: PubChem BioAssay (NCI)
